This is an account of results in paper PMC11653243, “Enhancing Phototoxicity in BODIPY‐Perylene Charge Transfer Dyads by Combined Iodination and Mesylation” (Chemistry (Weinheim an Der Bergstrasse, Germany), 2024).

The subject of test [1] is CHO cells. Put plainly: ROS imaging with H2DCFDA in live cells. It is filed as cell-based, Chinese Hamster. The following applies: 30 μM, 17 h; 488 nm (0.38 mW/cm^2) for 5 minutes. On the procedure: To study the production of ROS in a live cell environment a commercial ROS dye, H2DCFDA was used. CHO and MCF‐7 cells were incubated with MB2PI (30 μM, 17 h), washed with PBS and co‐stained with H2DCFDA (5 μM, 30 min). To ensure no photoactivation of MB2PI, emission from H2DCFDA was collected alone prior to the excitation of the BODIPY. The complex was then irradiated continuously at 488 nm (0.38 mW/cm^2) for 5 minutes. […] Weak emission of H2DCFDA was observed prior to irradiation, consistent with the low cytotoxicity of the complex. However, after irradiation, the fluorescence intensity of the ROS dye increases dramatically indicating ROS production, consistent with the high phototoxicity of MB2PI in both test cell lines. The higher phototoxicity of MB2PI in MCF‐7 cells restricted the ROS imaging study to CHO cells as the MCF‐7 cells began to die rapidly upon irradiation. Controls completed by adding H2DCFDA in test cells without MB2PI confirmed no ROS production with or without irradiation at 488 nm.
Figure S32. DPBF (10 mM) 1O2 scavenger assay with B2P, MB2P, B2PI or MB2PI in methanol from 0-210 seconds irradiation, where absorbance at 410 nm was recorded every 30 seconds.
CHO and MCF-7 cells were treated with MB2PI (30 µM, 17 h) for the ROS imaging studies. […]
A 63x oil immersion objective was used to acquire images. The irradiance was determined using a power meter from Edmund Optics. […]

Test [2] concerns CHO cells. Briefly: Hypoxic phototoxicity (CoCl2 induced hypoxia). It is filed as cell-based, Chinese Hamster. The conditions noted are these: Cricetulus griseus, 300 μM CoCl2 4 h, 470 nm LED, maximum 1 μM tested, read-out: hypoxic IC50 (light). On the procedure: (§1) Cobalt chloride (CoCl2), a popular chemical hypoxia inducer, was added to the cells (after incubation with B2PI or MB2PI) at a total concentration of 300 μM CoCl2 in media and incubated for 4 h to mimic hypoxic conditions. In comparison to low‐oxygen induced hypoxia, this method stabilises hypoxia inducible factor 1 alpha subunit (HIF‐1α) for some hours after treatment, allowing a greater window for the phototoxicity studies.[52] We have previously confirmed the chemical induction of hypoxia with CoCl2 using an enzyme linked immunosorbent assay to detect HIF‐1α in cell lysates.[53] The cells were irradiated immediately upon removal of the media/CoCl2 solution as per the normoxic phototoxicity protocol.
(§2) Dark‐ and photo‐toxicity studies were performed by seeding CHO and MCF‐7 cells in clear 96‐well plates (Nunc) and treating with varying concentrations of B2P, MB2P, B2PI and MB2PI. Phototoxicity experiments were carried out using a 470 nm LED. For hypoxic phototoxicity studies, hypoxia was mimicked by adding CoCl2 to the cells prior to irradiation. Cell viability was determined using the alamar blue assay and absorbance measured with a BMG LABTECH CLARIOstar plate reader.
(§3) Hypoxic Phototoxicity Studies
(§4) Hypoxic phototoxicity studies were performed as per routing phototoxicity protocol. Hypoxia […]
(§5) A 1 M stock of CoCl2 in sterile 1X PBS […]

Test [3] relates to MCF‐7 cells. Briefly: Hypoxic phototoxicity (CoCl2 induced hypoxia). The format is cell-based. The following applies: Homo sapiens, MCF7, 300 μM CoCl2 4 h, 470 nm LED, maximum 1 μM tested, read-out: hypoxic IC50 (light). On the procedure:
as §1, §2, §3, §4, §5

In test [4] the test system is HeLa cells. Further details: method as in PMID 31743947. The conditions noted are these: 9.6 J/cm^2, 500 nm irradiation; cited from earlier work.
Test [5] deals with MCF‐7 cells. Further details: method as in PMID 36807947. The conditions noted are these: 470 nm LED, 17±1.64 J/cm^2, published previously, read-out: Light IC50 (converted); cited from earlier work.

Like-named read-outs stand apart in the source and are kept apart here. Some results are limits rather than exact numbers.

With `CC1=C(c2ccc3c4cccc5cccc(c6cccc2c63)c54)C(C)=[N+]2C1=C(c1c(C)cc(C)cc1C)c1c(C)c(I)c(C)n1[B-]2(F)F` [MB2PI], in test [1], the “ROS production (H2DCFDA fluorescence) after irradiation” value was “increased production of ROS”. The half-inhibitory concentration (IC50) in test [2] and in test [3] was > 1000 nM each time.
As for `CC1=CC(C)=[N+]2C1=C(c1ccccc1)c1c(C)c(-c3ccc4c5cccc6cccc(c7cccc3c74)c65)c(C)n1[B-]2(F)F` [B2P], the “phototoxic index (PI)” value in test [4] is reported as 1041.
Consider `CC1=C(I)C(C)=[N+]2C1=C(c1ccccc1)c1c(C)c(-c3ccc4c5cccc6cccc(c7cccc3c74)c65)c(C)n1[B-]2(F)F` [B2PI], for which the concentration for half-maximal inhibition (IC50) (commonly the concentration at which inhibition is half-maximal) in test [5] was 235 nM.
